Literature values in patent US5321127A, “Antiplatelet and antithrombotic activity of platelet glycoprotein Ib receptor fragments” (priority 1991, dated 1994).

System: vWF binding to platelets
Settings: literature

In the case of “synthetic peptide spanning amino acid residues aspartate235 to lysine262: GpIbα synthetic peptide reported by Katagiri et al. (DVKAMTSNVASVQCDNSDKFPVYKYPGK; UniProt P07359 251-278, looked up, fragment)”, the “Inhibition of ristocetin-dependent binding of vWF to platelets” value is given as “inhibited”.
